This is an account of results in patent US4016280A, “4,4-Diarylpiperidine compositions and use” (Byk Gulden Lomberg Chemische Fabrik GmbH, priority 1969, dated 1977).

Series [1] has as its system albino mouse. Kind of series: Saliva secretion. The format is in vivo. The method, then: (§1) As stated above, the compounds of formula I have advantageous central nervous system stimulating properties. Side-effects, as they are encountered on administration of amphetamine-type stimulants, are produced to a much lesser extent by the 4,4-diphenylpiperidine compounds, if at all. […] The tests were carried out according to known and accepted pharmacological standard test methods.
No secretion Pronounced

A short description of series [2]: Exophthalmus. Conditions: in vivo. As for the experimental part: as §1
f Exophthalmus Absent Present

Series [3] relates to albino mouse. Kind of series: Locomotory activity (restlessness in movements). It counts as in vivo. Conditions: albino mouse 5 mg/kg. perorally. As for the experimental part: as §1
Series [4] can be described thus: Acute toxicity in the albino mouse. Conditions: in vivo. As for the experimental part:
as §1
(§2) a Acute toxicity 150 mg./kg. 100 mg./kg.

The nature of series [5]: Potentiating effect on noradrenaline. Conditions: in vivo. The method, then: as §1
Series [6] in a line: Tachyphylaxis. Conditions: in vivo. As for the experimental part:
as §1
g Tachyphylaxis None Pronounced

Series [7] is described as follows: Increase in blood pressure. It counts as in vivo. Conditions: rats and dogs. The method, then:
as §1
pressure (rats and increase

The conditions of series [8]: Marshall, Brit. J. Pharmacol. 10, 270 (1955), technique of Schild, cited from earlier work.
For series [9] the following is noted: Randall and Lehmann, J. Pharmacol. Exp. Therap. 93, 314 (1948), cited from earlier work.
Series [10] relates to albino mouse. Kind of series: Antagonism in the albino mouse of tremorine tremor. The format is in vivo. Conditions: tremorine 15 mg/kg i.p., drug per os, Examples 28, 29: 50 to 300 mg/kg; for ED50: Mus musculus, po. As for the experimental part:
(§3) Antagonism in the albino mouse
(§4) of tion dation p.o.) i.p.)
(§5) *drugs administered per os
(§6) **administered in doses from 50 to 300 mg/kg

In series [11] the test system is albino mouse. Put plainly: Antagonism in the albino mouse of perphenazine catalepsy. The format is in vivo. Conditions: for ED50: Mus musculus, po, perphenazine 10 mg/kg p.o., drug per os, Examples 28, 29: 50 to 300 mg/kg; for Anticataleptic action (in words): mouse, in vivo. As for the experimental part:
as §3
(§7) Com- Preventive Curative catalepsy
as §4, §5, §6

Series [12] concerns albino mouse. Put plainly: Antagonism in the albino mouse of reserpine (preventive and curative ptosis/sedation). It counts as in vivo. Conditions: reserpine 2mg/kg sc.; for ED50: Mus musculus, po. As for the experimental part:
as §3, §7, §4, §5, §6

The test system of series [13] is albino mouse. Kind of series: General behaviour of the albino mouse with different doses. It counts as in vivo. Conditions: for Locomotory activity (in words) / Restlessness, stereotypia or salivation (in words) / Vigilance of the animal (in words) / Locomotory activity / Restlessness Stereotype / Salivation / Vigilance: albino mouse; for Locomotory activity / Restlessness Stereotype / Salivation / Vigilance: different doses per os, Examples 28, 29: 50 to 300 mg/kg; for Sedation of animals (in words): mouse, in vivo. As for the experimental part:
Acute toxi- General behaviour of the albino
city in the mouse with different doses*
as §5, §6

Series [14] in a line: Potentiation of the effect of hexobarbital. Conditions: in vivo. From the text: (§8) These compounds are useful as neuroleptics.
Series [15] in a line: Neuroleptic effects. Conditions: in vivo.
Description: as §8

In series [16] the test system is albino mouse. Kind of series: Acute toxicity in the albino mouse. Conditions: mouse, in vivo. As for the experimental part:
as §1, §2

The mark [17] stands for this setting: listed as 1 methyl-4,4-diphenylpiperidine.
Where [18] appears, read: drug per os, Examples 28, 29: 50 to 300 mg/kg, read-out: Reserpine antagonism, Curative Sedation ED50.
[19] abbreviates: drug per os, Examples 28, 29: 50 to 300 mg/kg, read-out: Reserpine antagonism, Curative ptosis ED50.
The mark [20] stands for this setting: drug per os, read-out: Reserpine antagonism, Preventive Sedation ED50.
[21] abbreviates: drug per os, read-out: Reserpine antagonism, Preventive ptosis ED50.
Where [22] appears, read: mouse, iv, Table 2, i.v., read-out: Acute toxicity in the albino mouse LD50 i.v.
The mark [23] stands for this setting: mouse, po, Table 2, p.o., read-out: Acute toxicity in the albino mouse LD50 p.o.
The mark [24] stands for this setting: drug per os, Examples 28, 29: 50 to 300 mg/kg.
[25] abbreviates: doses from 50 to 300 mg/kg per os.
Setting [26] is: 18 h, doses from 50 to 300 mg/kg per os.
Where [27] appears, read: 18 h, doses from 50 to 300 mg/kg per os, read-out: Reserpine antagonism, Preventive Sedation ED50, 18 h.

By ED50 is commonly meant the dose at which the effect has come halfway, by size or by number of responders.

Entries after “also recorded” stand apart in the source; their conditions may differ. Read-outs that look alike come from different tables or passages of the source.

Consider `CC(N)Cc1ccccc1` (stereo not drawn) [Amphetamine, reference compound], for which, in series [1], the Saliva secretion result is recorded as “Pronounced”. Moreover, in series [2], the Exophthalmus entry is recorded as “Present”. Further, in [3], the “Locomotory activity (restlessness in movements), increase by” value turned out to be 100%. For the same molecule, the LD50 in series [4] (po, Table 1, albino mouse perorally, read-out: Acute toxicity) came out at 100 mg/kg. For the same molecule, in series [5], the “Potentiating effect on noradrenaline” value is recorded as “Present”. The Tachyphylaxis result in series [6] is given as “Pronounced”. Also, the “Increase in blood pressure” value in [7] was “Pronounced”.

Take `CN1CCC(c2ccccc2)(c2ccccc2)CC1` [Example 1, 1-Methyl-4,4-diphenylpiperidine]: the Antihistaminic activity entry in series [8] (listed as 1-Methyl-4,4-diphenylpiperidine) was “devoid of any therapeutically utilizable antihistaminic activity”; in [8] (setting [17]) it was “devoid of any therapeutically-utilizable antihistaminic activity”. Also, the Analgesic activity result in series [9] (listed as 1-methyl-4,4-diphenylpiperidine) was “devoid of analgesic activity”; in series [9] (setting [17]), “devoid of analgesic action”. In addition, the ED50 is 1 mg/kg in [10]; 3 mg/kg in series [11]; 10 mg/kg in series [12] (setting [18]); above 50 mg/kg in series [12] (setting [19]); 3 mg/kg in [12] (setting [20]); 4 mg/kg in [12] (setting [21]). The LD50 in series [4] (setting [22]) is 45 mg/kg; in [4] (setting [23]) it was 140 mg/kg. Also, the “Locomotory activity (in words)” value in [13] was “only slightly increased”. Besides, the “Restlessness, stereotypia or salivation (in words)” value in series [13] was “without causing restlessness, sterotypia or salivation”. The “Vigilance of the animal (in words)” value in series [13] is reported as “strong increase”. Further, the Locomotory activity result in series [13] was “(+)”. Besides, in series [13], the “Restlessness Stereotype” value was “.phi. (no effect)”. Further, the Salivation entry in series [13] is listed as “.phi. (no effect)”. For the same molecule, the Vigilance result in series [13] is listed as “++”.

Regarding `CC(C)N1CCC(c2ccccc2)(c2ccccc2)CC1` [Example 4, 1-Isopropyl-4,4-diphenylpiperidine], the Saliva secretion entry in [1] is given as “No secretion”. In series [2], the Exophthalmus entry was “Absent”. Also, the 50% effective dose (ED50) in series [10] was 1.5 mg/kg; in [11], 7 mg/kg; in series [12] (setting [18]), 13 mg/kg; in series [12] (setting [19]), above 50 mg/kg; in series [12] (setting [20]) it was 3 mg/kg; in [12] (setting [21]), 16 mg/kg. Moreover, in series [3], the “Locomotory activity (restlessness in movements), increase by” value is listed as 20%. The LD50 amounted to 20 mg/kg in series [4] (setting [22]) and 150 mg/kg in series [4] (setting [23]). Besides, in series [5], the “Potentiating effect on noradrenaline” value is recorded as “Present”. The Locomotory activity result in [13] is recorded as “(+)”. The “Restlessness Stereotype” value in series [13] was “.phi. (no effect)”. In addition, in [13], the Salivation result is given as “.phi. (no effect)”. In addition, in [13], the Vigilance result is “++”. Further, the Tachyphylaxis entry in series [6] was “None”. Moreover, the “Increase in blood pressure” value in [7] is “Slight increase”.

For the molecule `CCC(C)N1CCC(c2ccccc2)(c2ccccc2)CC1` (stereo not drawn) [Example 26, 1-(secondary Butyl)-4,4-diphenylpiperidine], the Antihistaminic activity entry in [8] is “devoid of any therapeutically-utilizable antihistaminic activity; also recorded: devoid of any therapeutically utilizable antihistaminic activity”. Further, in series [10], the ED50 was determined as 5 mg/kg. The molecule also showed an ED50 in [11] of 7 mg/kg. Further, the ED50 in [12] (setting [18]) was 10 mg/kg. For the same molecule, in series [12] (setting [20]), the 50% effective dose (ED50) was found to be 10 mg/kg. For the same molecule, in series [12] (setting [21]), the ED50 stood at 25 mg/kg. Further, in [12] (setting [24]), the “Reserpine antagonism, Curative ptosis ED50” value is recorded as “(+)”. For the same molecule, the LD50 in series [4] (setting [22]) was determined as 19 mg/kg. In series [13], the “Locomotory activity (in words)” value was “only slightly increased”; the “Restlessness, stereotypia or salivation (in words)” value is on record as “without causing restlessness, sterotypia or salivation”; the “Vigilance of the animal (in words)” value is “strong increase”; the Locomotory activity result is recorded as “(+)”. Moreover, in series [13], the “Restlessness Stereotype” value is “.phi. (no effect)”, the Salivation result is listed as “.phi. (no effect)” and the Vigilance result was “++”.

Regarding `O=C(CCCN1CCC(c2ccccc2)(c2ccccc2)CC1)c1ccc(F)cc1` [Example 28, 1-[3-(p-Fluorobenzoyl)propyl]-4,4-diphenylpiperidine], the “Tremorine tremor antagonism ED50” value in series [10] was “.phi. (no effect)”. In series [14], the “Effect on hexobarbital (in words)” value was “potentiate the effect of hexobarbital”. In addition, in [15], the “Neuroleptic effects (in words)” value is reported as “exhibit neuroleptic effects”. In series [11], it took a dose of 50 mg/kg to reach the 50% effect level (ED50) and the “Anticataleptic action (in words)” value was “exhibit anticataleptic action”. Further, in series [12] (setting [25]), the “Reserpine antagonism, Preventive Sedation ED50, 3 h” value is given as “.phi. (no effect)” and the “Reserpine antagonism, Preventive ptosis ED50, 3 h” value is recorded as “.phi. (no effect)”. In [12] (setting [26]), the “Reserpine antagonism, Preventive ptosis ED50, 18 h” value is given as “.phi. (no effect)”. Also, the ED50 in series [12] (setting [27]) was found to be 300 mg/kg. Moreover, in [12] (setting [24]), the “Reserpine antagonism, Curative Sedation ED50” value is on record as “.phi. (no effect)” and the “Reserpine antagonism, Curative ptosis ED50” value was “.phi. (no effect)”. Moreover, the “Acute toxicity (in words)” value in [16] is “very low acute toxicity”. Also, the LD50 in series [4] (setting [23]) was 3800 mg/kg. In series [13], the “Vigilance of the animal (in words)” value was “somewhat reduce vigilance”, the Locomotory activity result is recorded as “- (decrease)”, the “Restlessness Stereotype” value was “.phi. (no effect)” and the Salivation entry is given as “.phi. (no effect)”. For the same molecule, in series [13], the Vigilance result was “- (decrease)” and the “Sedation of animals (in words)” value was “induce sedation”.

Take `O=C(CCCN1CCC(c2ccccc2)(c2ccccc2)CC1)c1ccccc1` [Example 29, 1-(3-Benzoylpropyl)-4,4-diphenylpiperidine]: the “Tremorine tremor antagonism ED50” value in series [10] is “.phi. (no effect)”. Besides, the “Effect on hexobarbital (in words)” value in series [14] is listed as “potentiate the effect of hexobarbital”. Besides, in [15], the “Neuroleptic effects (in words)” value is reported as “exhibit neuroleptic effects”. Besides, in series [11], the ED50 turned out to be 50 mg/kg and the “Anticataleptic action (in words)” value is reported as “exhibit anticataleptic action”. Further, in [12] (setting [25]), the “Reserpine antagonism, Preventive Sedation ED50, 3 h” value is on record as “.phi. (no effect)” and the “Reserpine antagonism, Preventive ptosis ED50, 3 h” value is “.phi. (no effect)”. Moreover, the “Reserpine antagonism, Preventive ptosis ED50, 18 h” value in series [12] (setting [26]) is “.phi. (no effect)”. The ED50 in [12] (setting [27]) was 100 mg/kg. In [12] (setting [24]), the “Reserpine antagonism, Curative Sedation ED50” value is “.phi. (no effect)” and the “Reserpine antagonism, Curative ptosis ED50” value is “.phi. (no effect)”. Further, the “Acute toxicity (in words)” value in [16] is “very low acute toxicity”. Also, in series [13], the “Vigilance of the animal (in words)” value is “somewhat reduce vigilance”, the Locomotory activity result is listed as “- (decrease)”, the “Restlessness Stereotype” value is on record as “.phi. (no effect)” and the Salivation entry was “.phi. (no effect)”. In series [13], the Vigilance entry is given as “- (decrease)” and the “Sedation of animals (in words)” value is “induce sedation”.
